# According to ChEMBL document CHEMBL1275550, “In vitro activity of doripenem, a carbapenem for the treatment of challenging infections caused by gram-negative bacteria, against recent clinical isolates from the United States” (2008):
# Legend:
# Acinetobacter [1] = assay: Antimicrobial activity against imipenem susceptible Acinetobacter assessed as susceptible isolate by broth microdilution method; type: functional
# Proteus mirabilis [2] = assay: Antimicrobial activity against Non-ESBL Proteus mirabilis by broth microdilution method; type: functional
# Serratia marcescens [3] = assay: Antimicrobial activity against Ceftazidime susceptible Serratia marcescens assessed as susceptible isolate by broth microdilution method; type: functional
# Escherichia coli [4] = assay: Antimicrobial activity against ESBL producing Escherichia coli assessed as susceptible isolate by broth microdilution method; type: functional
# Citrobacter [5] = assay: Antimicrobial activity against Citrobacter assessed as susceptible isolate by broth microdilution method; type: functional
# Klebsiella pneumoniae [6] = assay: Antimicrobial activity against Non-ESBL Klebsiella pneumoniae assessed as susceptible isolate by broth microdilution method; type: functional
# Pseudomonas aeruginosa [7] = assay: Antimicrobial activity against Pseudomonas aeruginosa isolated from non-ICU patient by broth microdilution method; type: functional
# Streptococcus pneumoniae [8] = assay: Antimicrobial activity against penicillin-susceptible Streptococcus pneumoniae by broth microdilution method; type: functional; conditions: Streptococcus pneumoniae
# Pseudomonas aeruginosa [9] = assay: Antimicrobial activity against Pseudomonas aeruginosa isolated from non-ICU patient by broth microdilution method
# Staphylococcus aureus = assay: Antimicrobial activity against methicillin-susceptible Staphylococcus aureus by broth microdilution method; type: functional; conditions: Staphylococcus aureus
# Enterobacter cloacae [10] = assay: Antimicrobial activity against Enterobacter cloacae by broth microdilution method; type: functional
# Enterobacteriaceae [11] = assay: Antimicrobial activity against ceftazidime-susceptible Enterobacteriaceae assessed as susceptible isolate by broth microdilution method; type: functional
# Enterobacteriaceae [12] = assay: Antimicrobial activity against Ceftazidime non-susceptible Enterobacteriaceae assessed as susceptible isolate by broth microdilution method; type: functional
# Acinetobacter [13] = assay: Antimicrobial activity against Acinetobacter by broth microdilution method; type: functional
# Pseudomonas aeruginosa [14] = assay: Antimicrobial activity against Pseudomonas aeruginosa assessed as susceptible isolate by broth microdilution method; type: functional
# Pseudomonas aeruginosa [15] = assay: Antimicrobial activity against imipenem susceptible Pseudomonas aeruginosa by broth microdilution method; type: functional
# Pseudomonas aeruginosa [16] = assay: Antimicrobial activity against Pseudomonas aeruginosa isolated from ICU patient by broth microdilution method; type: functional
# Enterobacteriaceae [17] = assay: Antimicrobial activity against Ceftazidime non-susceptible Enterobacteriaceae by broth microdilution method; type: functional
# Pseudomonas aeruginosa [18] = assay: Antimicrobial activity against imipenem susceptible Pseudomonas aeruginosa assessed as susceptible isolate by broth microdilution method; type: functional
# Pseudomonas aeruginosa [19] = assay: Antimicrobial activity against Ceftazidime susceptible Pseudomonas aeruginosa assessed as susceptible isolate by broth microdilution method; type: functional
# Pseudomonas aeruginosa [20] = assay: Antimicrobial activity against Pseudomonas aeruginosa by broth microdilution method; type: functional
# Serratia marcescens [21] = assay: Antimicrobial activity against Ceftazidime non-susceptible Serratia marcescens assessed as susceptible isolate by broth microdilution method; type: functional
# Klebsiella pneumoniae [22] = assay: Antimicrobial activity against Klebsiella pneumoniae assessed as susceptible isolate by broth microdilution method; type: functional
# Streptococcus pneumoniae [23] = assay: Antimicrobial activity against penicillin-resistant Streptococcus pneumoniae by broth microdilution method; type: functional; conditions: Streptococcus pneumoniae
# Citrobacter [24] = assay: Antimicrobial activity against Citrobacter with nonderepressed AmpC beta-lactamsae by broth microdilution method; type: functional
# Enterobacter cloacae [25] = assay: Antimicrobial activity against Enterobacter cloacae with nonderepressed AmpC beta-lactamsae by broth microdilution method; type: functional
# Enterobacteriaceae [26] = assay: Antimicrobial activity against Enterobacteriaceae assessed as susceptible isolate by broth microdilution method; type: functional
# Pseudomonas aeruginosa [27] = assay: Antimicrobial activity against imipenem non-susceptible Pseudomonas aeruginosa assessed as susceptible isolate by broth microdilution method; type: functional
# Citrobacter [28] = assay: Antimicrobial activity against Citrobacter with nonderepressed AmpC beta-lactamsae assessed as susceptible isolate by broth microdilution method; type: functional
# Citrobacter [29] = assay: Antimicrobial activity against Citrobacter with derepressed AmpC beta-lactamsae assessed as susceptible isolate by broth microdilution method; type: functional
# Serratia marcescens [30] = assay: Antimicrobial activity against Serratia marcescens assessed as susceptible isolate by broth microdilution method; type: functional
# Proteus mirabilis [31] = assay: Antimicrobial activity against Proteus mirabilis by broth microdilution method; type: functional
# Enterobacter cloacae [32] = assay: Antimicrobial activity against Enterobacter cloacae with nonderepressed AmpC beta-lactamsae assessed as susceptible isolate by broth microdilution method; type: functional
# Klebsiella pneumoniae [33] = assay: Antimicrobial activity against Non-ESBL Klebsiella pneumoniae by broth microdilution method; type: functional
# Klebsiella pneumoniae [34] = assay: Antimicrobial activity against ESBL producing Klebsiella pneumoniae by broth microdilution method; type: functional
# Enterobacteriaceae [35] = assay: Antimicrobial activity against ceftazidime-susceptible Enterobacteriaceae by broth microdilution method; type: functional
# Klebsiella pneumoniae [36] = assay: Antimicrobial activity against Klebsiella pneumoniae by broth microdilution method; type: functional
# Enterobacter cloacae [37] = assay: Antimicrobial activity against Enterobacter cloacae assessed as susceptible isolate by broth microdilution method; type: functional
# Acinetobacter [38] = assay: Antimicrobial activity against imipenem susceptible Acinetobacter by broth microdilution method; type: functional
# Enterobacteriaceae [39] = assay: Antimicrobial activity against ceftazidime-susceptible Enterobacteriaceae assessed as intermediate isolate by broth microdilution method; type: functional
# Proteus mirabilis [40] = assay: Antimicrobial activity against Non-ESBL Proteus mirabilis assessed as intermediate isolate by broth microdilution method; type: functional
# Serratia marcescens [41] = assay: Antimicrobial activity against Ceftazidime non-susceptible Serratia marcescens assessed as intermediate isolate by broth microdilution method; type: functional
# Klebsiella pneumoniae [42] = assay: Antimicrobial activity against Non-ESBL Klebsiella pneumoniae assessed as intermediate isolate by broth microdilution method; type: functional
# Enterobacteriaceae [43] = assay: Antimicrobial activity against Ceftazidime non-susceptible Enterobacteriaceae assessed as resistant isolate by broth microdilution method; type: functional
# Pseudomonas aeruginosa [44] = assay: Antimicrobial activity against Pseudomonas aeruginosa isolated from patient by broth microdilution method
# Pseudomonas aeruginosa [45] = assay: Antimicrobial activity against Ceftazidime susceptible Pseudomonas aeruginosa assessed as intermediate isolate by broth microdilution method; type: functional
# Acinetobacter [46] = assay: Antimicrobial activity against imipenem non-susceptible Acinetobacter assessed as resistant isolate by broth microdilution method; type: functional
# Citrobacter [47] = assay: Antimicrobial activity against Citrobacter with nonderepressed AmpC beta-lactamsae assessed as intermediate isolate by broth microdilution method; type: functional
# Enterobacter cloacae [48] = assay: Antimicrobial activity against Enterobacter cloacae with derepressed AmpC beta-lactamsae assessed as intermediate isolate by broth microdilution method; type: functional
# Proteus mirabilis [49] = assay: Antimicrobial activity against ESBL producing Proteus mirabilis assessed as intermediate isolate by broth microdilution method; type: functional
# Serratia marcescens [50] = assay: Antimicrobial activity against Ceftazidime susceptible Serratia marcescens assessed as intermediate isolate by broth microdilution method; type: functional
# Escherichia coli [51] = assay: Antimicrobial activity against Non-ESBL Escherichia coli assessed as intermediate isolate by broth microdilution method; type: functional
# Acinetobacter [52] = assay: Antimicrobial activity against imipenem susceptible Acinetobacter assessed as intermediate isolate by broth microdilution method; type: functional
# Pseudomonas aeruginosa [53] = assay: Antimicrobial activity against imipenem susceptible Pseudomonas aeruginosa assessed as intermediate isolate by broth microdilution method; type: functional
structure (smiles),measurement,setting,value
C[C@@H](O)[C@H]1C(=O)N2C(C(=O)O)=C(S[C@@H]3CN[C@H](CNS(N)(=O)=O)C3)[C@H](C)[C@H]12 [DORIPENEM],Activity,Acinetobacter [1],89.1%
same,MIC50,Proteus mirabilis [2],0.12 µg/mL
same,MIC90,Proteus mirabilis [2],0.5 µg/mL
same,Activity,Serratia marcescens [3],98.6%
same,Activity,Escherichia coli [4],100%
same,Activity,Citrobacter [5],99.8%
same,Activity,Klebsiella pneumoniae [6],99.7%
same,MIC50,Pseudomonas aeruginosa [7],0.25 µg/mL
same,MIC90,Pseudomonas aeruginosa [7],4 µg/mL
same,MIC50,Streptococcus pneumoniae [8],≤ 0.015 µg/mL
same,MIC90,Streptococcus pneumoniae [8]; read-out: MIC90,≤ 0.015 µg/mL
same,Activity,Pseudomonas aeruginosa [9],87.9%
same,MIC50,Staphylococcus aureus; read-out: MIC50,0.03 µg/mL
same,MIC90,Staphylococcus aureus; read-out: MIC90,0.06 µg/mL
same,MIC50,Enterobacter cloacae [10],0.03 µg/mL
same,MIC90,Enterobacter cloacae [10],0.12 µg/mL
same,Activity,Enterobacteriaceae [11],99.7%
same,Activity,Enterobacteriaceae [12],96.7%
same,MIC50,Acinetobacter [13],0.5 µg/mL
same,MIC90,Acinetobacter [13],32 µg/mL
same,Activity,Pseudomonas aeruginosa [14],88.3%
same,MIC50,Pseudomonas aeruginosa [15],0.25 µg/mL
same,MIC90,Pseudomonas aeruginosa [15],1 µg/mL
same,MIC50,Pseudomonas aeruginosa [16],0.5 µg/mL
same,MIC90,Pseudomonas aeruginosa [16],8 µg/mL
same,MIC50,Enterobacteriaceae [17],0.06 µg/mL
same,MIC90,Enterobacteriaceae [17],0.25 µg/mL
same,Activity,Pseudomonas aeruginosa [18],98.5%
same,Activity,Pseudomonas aeruginosa [19],92.3%
same,MIC50,Pseudomonas aeruginosa [20],0.25 µg/mL
same,MIC90,Pseudomonas aeruginosa [20],4 µg/mL
same,Activity,Serratia marcescens [21],100%
same,Activity,Klebsiella pneumoniae [22],99.6%
same,MIC50,Streptococcus pneumoniae [23]; read-out: MIC50,0.5 µg/mL
same,MIC90,Streptococcus pneumoniae [23]; read-out: MIC90,1 µg/mL
same,MIC50,Citrobacter [24],0.03 µg/mL
same,MIC90,Citrobacter [24],0.06 µg/mL
same,MIC50,Enterobacter cloacae [25],0.03 µg/mL
same,MIC90,Enterobacter cloacae [25],0.06 µg/mL
same,Activity,Enterobacteriaceae [26],99.5%
same,Activity,Pseudomonas aeruginosa [27],55.6%
same,Activity,Citrobacter [28],99.8%
same,Activity,Citrobacter [29],100%
same,Activity,Serratia marcescens [30],98.7%
same,MIC50,Proteus mirabilis [31],0.12 µg/mL
same,MIC90,Proteus mirabilis [31],0.5 µg/mL
same,Activity,Enterobacter cloacae [32],99.3%
same,MIC50,Klebsiella pneumoniae [33],0.03 µg/mL
same,MIC90,Klebsiella pneumoniae [33],0.06 µg/mL
same,MIC50,Klebsiella pneumoniae [34],0.03 µg/mL
same,MIC90,Klebsiella pneumoniae [34],0.12 µg/mL
same,MIC50,Enterobacteriaceae [35],0.03 µg/mL
same,MIC90,Enterobacteriaceae [35],0.12 µg/mL
same,MIC50,Klebsiella pneumoniae [36],0.03 µg/mL
same,MIC90,Klebsiella pneumoniae [36],0.06 µg/mL
same,Activity,Enterobacter cloacae [37],99.2%
same,MIC50,Acinetobacter [38],0.25 µg/mL
same,MIC90,Acinetobacter [38],2 µg/mL
CC(C)(O/N=C(\C(=O)N[C@@H]1C(=O)N2C(C(=O)[O-])=C(C[n+]3ccccc3)CS[C@H]12)c1csc(N)n1)C(=O)O [CEFTAZIDIME],Activity,Acinetobacter [1],66.8%
same,MIC,Proteus mirabilis [2],≤ 0.03 µg/mL
same,MIC50,Proteus mirabilis [2],≤ 0.03 µg/mL
same,MIC90,Proteus mirabilis [2],0.06 µg/mL
same,Activity,Serratia marcescens [3],100%
same,Activity,Enterobacteriaceae [39],0%
same,Activity,Escherichia coli [4],33.3%
same,Activity,Proteus mirabilis [40],0.2%
same,Activity,Serratia marcescens [41],0%
same,Activity,Klebsiella pneumoniae [6],99.2%
same,MIC50,Pseudomonas aeruginosa [7],2 µg/mL
same,MIC90,Pseudomonas aeruginosa [7],32 µg/mL
same,Activity,Klebsiella pneumoniae [42],0.3%
same,Activity,Pseudomonas aeruginosa [9],87.3%
same,Activity,Enterobacteriaceae [43],92.4%
same,Activity,Enterobacteriaceae [11],100%
same,Activity,Enterobacteriaceae [12],0%
same,MIC50,Pseudomonas aeruginosa [15],2 µg/mL
same,MIC90,Pseudomonas aeruginosa [15],8 µg/mL
same,MIC50,Pseudomonas aeruginosa [16],2 µg/mL
same,MIC90,Pseudomonas aeruginosa [16],32 µg/mL
same,MIC50,Enterobacteriaceae [17],> 32 µg/mL
same,MIC90,Enterobacteriaceae [17],> 32 µg/mL
same,Activity,Pseudomonas aeruginosa [18],90.9%
same,Activity,Pseudomonas aeruginosa [19],100%
same,Activity,Serratia marcescens [21],0%
same,Activity,Pseudomonas aeruginosa [44],2.3%
same,Activity,Pseudomonas aeruginosa [45],0%
same,Activity,Acinetobacter [46],84.3%
same,MIC50,Citrobacter [24],0.25 µg/mL
same,MIC90,Citrobacter [24],1 µg/mL
same,MIC50,Enterobacter cloacae [25],0.25 µg/mL
same,MIC90,Enterobacter cloacae [25],2 µg/mL
same,Activity,Pseudomonas aeruginosa [27],76.3%
same,Activity,Citrobacter [28],98.3%
same,Activity,Citrobacter [29],0%
same,Activity,Citrobacter [47],0.4%
same,Activity,Enterobacter cloacae [32],93.6%
same,MIC50,Klebsiella pneumoniae [33],0.12 µg/mL
same,MIC90,Klebsiella pneumoniae [33],0.5 µg/mL
same,Activity,Enterobacter cloacae [48],1.9%
same,MIC50,Klebsiella pneumoniae [34],> 32 µg/mL
same,MIC90,Klebsiella pneumoniae [34],> 32 µg/mL
same,MIC50,Enterobacteriaceae [35],0.12 µg/mL
same,MIC90,Enterobacteriaceae [35],0.5 µg/mL
same,Activity,Proteus mirabilis [49],50%
same,Activity,Serratia marcescens [50],0%
same,Activity,Escherichia coli [51],0.5%
same,Activity,Acinetobacter [52],5.5%
same,Activity,Pseudomonas aeruginosa [53],2.2%
same,MIC50,Acinetobacter [38],4 µg/mL
same,MIC90,Acinetobacter [38],> 32 µg/mL
